Consider 2 molecules from patent US9708590B2, “Crystal structure of human α-N-acetylglucosaminidase” (Shire Human Genetic Therapies, Inc., priority 2010, dated 2017).

Data set [1] can be described thus: Solubility of the activity-assay substrate in water. Type of data set: physicochemical. Conditions: required DMSO to be dissolved. The protocol:
A 10 mM stock of substrate was prepared by dissolving 5 mg of 4-methylumbelliferyl-N-acetyl-α-D-glucosaminide in 250 μL of 100% DMSO first. Naglu activity assay reaction buffer was then added to bring the volume up to […]. This 10 mM Substrate stock was further diluted 10-fold with reaction buffer to make the 1 mM substrate solution. Un-used 10 mM substrate stock was stored in −80° C. for up to one month. Samples and controls were pre-diluted in reaction buffer. 10 μL of each pre-diluted sample/control was applied in duplicate wells on a black clear bottom 96 well plate. 10 μL of reaction buffer was added to two wells of the plate and served as reaction buffer control. 75 μL of 1 mM substrate was added to each well that contained 10 μL of sample/control. The plate was sealed with plate sealer and wrapped with aluminum foil. The plate was placed in 37° C. Jitterbug and incubated with shaking setting at #1 for 1 hour. Prior to the completion of incubation, standards were prepared by diluting the stock (1000 μM) of 4-methlyumbelliferyl sodium salt down to 25 μM, 12.5 μM, 6.25 μM, 3.12 μM, 1.56 μM, 0.78 μM, 0 μM with water. At the completion of incubation, 85 μL of each of the seven standards was loaded on the plate in duplicate. […] The plate was measured for fluorescence at 360/460 (Excitation/Emission) using a Molecular Devices SpectraMax Plus M2 plate reader.

For data set [2], the system named is MSP III-B derived fibroblasts. Particulars: in vitro, Malinowska et al. (2009); cited from earlier work.

`CC(=O)N[C@H]1[C@@H](Oc2ccc3c(C)cc(=O)oc3c2)O[C@H](CO)[C@@H](O)[C@@H]1O` [4-methylumbelliferyl-N-acetyl-α-D-glucosaminide]: the solubility in water entry in data set [1] is “very low solubility in water”.

As for `O=c1c(-c2ccc(O)cc2)coc2cc(O)cc(O)c12` [gensteine], in data set [2], the “effect on GAG synthesis” value is “inhibit GAG synthesis”.
